Columns and labels:
[1] = test system: Bcl-xL inhibition of cBid/Bax; assay: In vitro reconstitution liposome permeabilization, cBid/Bax with Bcl-xL; assay type: biochemical; conditions: ANTS/DPX liposomes, 100 nM Bax, 20 nM cBid, pre-incubation pH 9, 45 min, 37 °C, 5 h, pH 7
From the text: This purified assay system measures direct interactions in which full-length untagged Bcl-xL inhibits permeabilization by binding full-length caspase 8 cleaved Bid (cBid) and/or full-length untagged Bax, thereby preventing Bax oligomerization in membranes. […] In these assays liposome permeabilization by activated Bax releases the entrapped fluorophore/quencher pair 8-aminonaphthalene-1,3,6-trisulfonic acid (ANTS)/p-xylene-bispyridinium (DPX), resulting in a measurable increase of fluorescence.
(A–E) in vitro reconstitution assay on liposome permeabilization. […] The treated Bcl-xL was then added to reactions containing ANTS-DPX liposomes, 100 nM Bax and 20 nM of either cBid (A,B) or cBidmt1(C,D) at pH 7. Liposome permeabilization was quantified by fluorescence after 5h incubation at 37 °C where 100% release was defined as the fluorescence change due to lipid solubilization with 1% Triton X-100. […] Error bars, std. dev. n = 3. […] Cyto c extra-mito: in the supernatant, analysed by Western blot. […]
(§1) Figure 10 A,B) or cBid mt1 (Supplementary Figure 10 C,D) at pH 7 to quantify the activity of Bcl-xL inhibition of liposome permeablization. […]
then added to reactions containing ANTS-DPX liposomes, 100nM Bax and 20nM of either c Bid (A, C) or cBid mt1(B, D) at pH 7 and liposome permeabilization was quantified by fluorescence […]

[2] = test system: Bcl-xL; assay: In cellulo BRET between Luciferase-fused TCTP and YFP-fused Bcl-xL; assay type: cell-based; conditions: MCF-7 cells; donor Luciferase-fused TCTP, acceptor YFP-fused Bcl-xL
From the text: See Supplementary Information for full details.
Twenty-four hours later, cells
Protein expression and purification

[3] = test system: cBidmt1+Bax; assay: Control liposome permeabilization without Bcl-xL, cBidmt1+Bax; assay type: biochemical; conditions: 320 nM pH9 treated TCTP, 100 nM Bax, 20 nM cBidmt1
Protocol: (A–E) in vitro reconstitution assay on liposome permeabilization. […] The treated Bcl-xL was then added to reactions containing ANTS-DPX liposomes, 100 nM Bax and 20 nM of either cBid (A,B) or cBidmt1(C,D) at pH 7. Liposome permeabilization was quantified by fluorescence after 5h incubation at 37 °C where 100% release was defined as the fluorescence change due to lipid solubilization with 1% Triton X-100. […] Error bars, std. dev. n = 3. To compare between the TCTP treated groups and the Control group statistically, two-way ANOVA test was performed for (A–D) and one-way ANOVA test was performed for (E). […] Colored asterisks above each data point indicate the statistical significance (*p < 0.05; **p < 0.01, no asterisks if p ≥ 0.05). A complete statistical analysis is provided in Supplementary Table 2–4. (F) Permeabilization assays of mitochondrial membrane by tBid and Bax assessing cytochrome c release. […] Cyto c extra-mito: in the supernatant, analysed by Western blot. […]
as §1
the Control group (No TCTP) were analyzed through Dunnett's multiple comparisons test at each sample condition (Bcl-XL concentration) for statistical significance. […]
Statistical significance was analyzed through Dunnett's multiple comparisons test. […]

## TCTP: Translationally Controlled Tumor Protein (TCTP/tpt1), recombinant full-length
[1]
  effect on Bcl-xL inhibition of cBid/Bax-mediated liposome permeabilization: enhanced Bcl-xL inhibition
[2]
  BRET signals with Bcl-xL: saturable BRET signals
[3]
  effect on cBidmt1-Bax induced permeabilization not containing Bcl-xL: no effect

Source: article PMC4728560 (Scientific Reports, 2016)
